# Data reported in patent US9409905B2, “Antibacterial compounds and methods for use” (PTC THERAPEUTICS, INC., priority 2011, dated 2016).
# Key:
# A. baumannii MXX2240 = assay: Antibacterial activity, MIC, resistant strain (Table 4); format: cell-based; settings: Acinetobacter baumannii, MXX2240; resistant A. baumannii MMX2240, multi-drug resistant clinical isolate; read-out: MIC, MMX2240
# Summary of the method: (§1)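 Broth microdilution; MIC (μg/mL) = lowest concentration with no macroscopically visible growth. Resistant strains: multi-drug resistant clinical isolates.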
# K. pneumoniae MXX1232 = assay: as above; format: cell-based; settings: Klebsiella pneumoniae, MXX1232; resistant K. pneumoniae MMX1232, multi-drug resistant clinical isolate; read-out: MIC, MMX1232
# Summary of the method: as §1
# [1] = tested on: Moraxella catarrhalis (M. catarrhalis) 25238; assay: Antibacterial activity, MIC (Table 7); format: cell-based
# Summary of the method: (§2)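 Read-out: absence of macroscopically visible growth. The lowest inhibiting concentration from the microbroth dilution series is reported as MIC in μg/mL.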
# [2] = tested on: Klebsiella pneumoniae (K. pneumoniae) 35657; assay: Antibacterial activity, MIC (Table 4); format: cell-based; settings: K. pneumoniae 35657, read-out: MIC, 35657
# Summary of the method: as §1
# [3] = tested on: Acinetobacter baumannii (A. baumannii) BAA747; assay: Antibacterial activity, MIC (Table 4); format: cell-based; settings: A. baumannii BAA747, read-out: MIC, BAA747
# Summary of the method: as §1
# [4] = tested on: Pseudomonas aeruginosa (P. aeruginosa) 27853; assay: Antibacterial activity, MIC (Table 5); format: cell-based; settings: P. aeruginosa 27853, read-out: MIC, 27853
# Summary of the method: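 Compounds are serially diluted in broth and inoculated with the organism. Growth is then inspected macroscopically, and the lowest concentration showing none is taken as the MIC (μg/mL).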
# [5] = tested on: Haemophilus influenzae (H. influenzae) 49247; assay: Antibacterial activity, MIC (Table 6); format: cell-based
# Summary of the method: as §2
# [6] = tested on: Neisseria meningitidis (N. meningitidis) 13090; assay: Antibacterial activity, MIC (Table 8); format: cell-based
# Summary of the method: as §2
# E. coli LZ3111 = assay: Antibacterial activity, MIC, quinolone resistant strain (Table 2); format: cell-based; settings: Escherichia coli, LZ3111, read-out: MIC LZ3111
# Summary of the method: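 Strain carries mutations conferring high-level quinolone resistance; tested by microbroth dilution, MIC recorded in μg/mL as lowest concentration preventing visible growth.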
# E. coli 25922 = assay: Antibacterial activity, microbroth dilution MIC (Table 1); format: cell-based, Escherichia coli; settings: Escherichia coli; microbroth dilution; control Gram-negative E. coli 25922 strain; read-out: MIC, 25922
# Summary of the method: (§3)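 Potency is reported as minimum inhibitory concentration in μg/mL, determined by broth microdilution as the lowest level of compound that stops growth visible to the eye.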
# E. coli ELZ4251 = assay: Antibacterial activity, MIC, multi-drug resistant clinical isolate (Table 3); format: cell-based; settings: Escherichia coli
# Summary of the method: (§4)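 Microbroth dilution. Endpoint: absence of macroscopically visible growth. Value = MIC, μg/mL.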
# E. coli ELZ4000 = assay: as above; format: cell-based; settings: Escherichia coli, ELZ4000, read-out: MIC ELZ4000
# Summary of the method: as §4
# [7] = tested on: Escherichia coli (E. coli) BAS849; assay: Antibacterial activity, microbroth dilution MIC (Table 1); format: cell-based; settings: microbroth dilution, super sensitive Gram-negative E. coli BAS849, read-out: MIC, BAS849
# Summary of the method: as §3
# [8] = tested on: Staphylococcus aureus (S. aureus) 29213; assay: as above; format: cell-based; settings: microbroth dilution, Gram-positive S. aureus 29213, read-out: MIC, 29213
# Summary of the method: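 Read-out: visual absence of growth. The lowest concentration meeting this gives the MIC, expressed in μg/mL, with microbroth dilution as the method.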
smiles,measurement,setting,value
"CCc1c(-c2ccc3c(c2)cc(CN2CCCN(C)CC2)n3C)[nH]c(=O)c(C(=O)O)c1O.Cl.Cl [Cpd 238, 5-ethyl-4-hydroxy-6-(1-methyl-2-((4-methyl-1,4-diazepan-1-yl)methyl)-1H-indol-5-yl)-2-oxo-1,2-dihydropyridine-3-carboxylic acid dihydrochloride]",MIC,A. baumannii MXX2240,12.5 to 150 µg/mL
same,MIC,K. pneumoniae MXX1232,12.5 to 150 µg/mL
same,MIC,[1],1 to 3.5 µg/mL
same,MIC,[2],1 to 3.5 µg/mL
same,MIC,[3],3.5 to 12.5 µg/mL
same,MIC,[4],12.5 to 150 µg/mL
same,MIC,[5],< 1 µg/mL
same,MIC,[6],< 1 µg/mL
same,MIC,E. coli LZ3111,1 to 3.5 µg/mL
same,MIC,E. coli 25922,1 to 3.5 µg/mL
same,MIC,E. coli ELZ4251,12.5 to 150 µg/mL
same,MIC,E. coli ELZ4000,12.5 to 150 µg/mL
same,MIC,[7],< 1 µg/mL
same,MIC,[8],3.5 to 12.5 µg/mL
"CCc1c(-c2ccc3c(c2)cc(CN2CCC(C)CC2)n3C)[nH]c(=O)c(C(=O)O)c1O [Cpd 247, 5-ethyl-4-hydroxy-6-(1-methyl-2-((4-methylpiperidin-1-yl)methyl)-1H-indol-5-yl)-2-oxo-1,2-dihydropyridine-3-carboxylic acid]",MIC,A. baumannii MXX2240,1 to 3.5 µg/mL
same,MIC,K. pneumoniae MXX1232,12.5 to 150 µg/mL
same,MIC,[1],< 1 µg/mL
same,MIC,[2],1 to 3.5 µg/mL
same,MIC,[3],1 to 3.5 µg/mL
same,MIC,[4],12.5 to 150 µg/mL
same,MIC,[5],1 to 3.5 µg/mL
same,MIC,[6],< 1 µg/mL
same,MIC,E. coli LZ3111,3.5 to 12.5 µg/mL
same,MIC,E. coli 25922,< 1 µg/mL
same,MIC,E. coli ELZ4251,12.5 to 150 µg/mL
same,MIC,E. coli ELZ4000,12.5 to 150 µg/mL
same,MIC,[7],< 1 µg/mL
same,MIC,[8],3.5 to 12.5 µg/mL
"CCc1c(-c2ccc3c(c2)cc(CN2CCC(N)CC2)n3C)[nH]c(=O)c(C(=O)O)c1O [Cpd 252, 6-(2-((4-aminopiperidin-1-yl)methyl)-1-methyl-1H-indol-5-yl)-5-ethyl-4-hydroxy-2-oxo-1,2-dihydropyridine-3-carboxylic acid]",MIC,A. baumannii MXX2240,12.5 to 150 µg/mL
same,MIC,K. pneumoniae MXX1232,12.5 to 150 µg/mL
same,MIC,[1],3.5 to 12.5 µg/mL
same,MIC,[2],1 to 3.5 µg/mL
same,MIC,[3],12.5 to 150 µg/mL
same,MIC,[4],3.5 to 12.5 µg/mL
same,MIC,[5],1 to 3.5 µg/mL
same,MIC,[6],1 to 3.5 µg/mL
same,MIC,E. coli LZ3111,1 to 3.5 µg/mL
same,MIC,E. coli 25922,1 to 3.5 µg/mL
same,MIC,E. coli ELZ4251,12.5 to 150 µg/mL
same,MIC,E. coli ELZ4000,12.5 to 150 µg/mL
same,MIC,[7],< 1 µg/mL
same,MIC,[8],12.5 to 150 µg/mL
"Cc1c(-c2ccc3c(c2)cc(CN2CCC2)n3C)[nH]c(=O)c(C(=O)O)c1O [Cpd 316, 6-(2-(azetidin-1-ylmethyl)-1-methyl-1H-indol-5-yl)-4-hydroxy-5-methyl-2-oxo-1,2-dihydropyridine-3-carboxylic acid]",MIC,A. baumannii MXX2240,1 to 3.5 µg/mL
same,MIC,K. pneumoniae MXX1232,12.5 to 150 µg/mL
same,MIC,[1],3.5 to 12.5 µg/mL
same,MIC,[2],3.5 to 12.5 µg/mL
same,MIC,[3],3.5 to 12.5 µg/mL
same,MIC,[4],12.5 to 150 µg/mL
same,MIC,[5],1 to 3.5 µg/mL
same,MIC,[6],12.5 to 150 µg/mL
same,MIC,E. coli LZ3111,< 1 µg/mL
same,MIC,E. coli 25922,1 to 3.5 µg/mL
same,MIC,E. coli ELZ4251,3.5 to 12.5 µg/mL
same,MIC,E. coli ELZ4000,3.5 to 12.5 µg/mL
same,MIC,[7],< 1 µg/mL
same,MIC,[8],12.5 to 150 µg/mL
"CCc1c(-c2ccc3c(c2)cc(CN2CCCC(N(C)C)C2)n3C)[nH]c(=O)c(C(=O)O)c1O (stereo not drawn) [Cpd 250, 6-(2-((3-(dimethylamino)piperidin-1-yl)methyl)-1-methyl-1H-indol-5-yl)-5-ethyl-4-hydroxy-2-oxo-1,2-dihydropyridine-3-carboxylic acid]",MIC,A. baumannii MXX2240,12.5 to 150 µg/mL
same,MIC,K. pneumoniae MXX1232,12.5 to 150 µg/mL
same,MIC,[1],1 to 3.5 µg/mL
same,MIC,[2],3.5 to 12.5 µg/mL
same,MIC,[3],3.5 to 12.5 µg/mL
same,MIC,[4],12.5 to 150 µg/mL
same,MIC,[5],3.5 to 12.5 µg/mL
same,MIC,[6],< 1 µg/mL
same,MIC,E. coli LZ3111,3.5 to 12.5 µg/mL
same,MIC,E. coli 25922,1 to 3.5 µg/mL
same,MIC,E. coli ELZ4251,12.5 to 150 µg/mL
same,MIC,E. coli ELZ4000,12.5 to 150 µg/mL
same,MIC,[7],< 1 µg/mL
same,MIC,[8],3.5 to 12.5 µg/mL
"CCc1c(-c2ccc3c(c2)cc(CN2CCN(C)CC2)n3C)[nH]c(=O)c(C(=O)O)c1O [Cpd 169, 5-ethyl-4-hydroxy-6-(1-methyl-2-((4-methylpiperazin-1-yl)methyl)-1H-indol-5-yl)-2-oxo-1,2-dihydropyridine-3-carboxylic acid]",MIC,A. baumannii MXX2240,12.5 to 150 µg/mL
same,MIC,K. pneumoniae MXX1232,12.5 to 150 µg/mL
same,MIC,[1],< 1 µg/mL
same,MIC,[2],1 to 3.5 µg/mL
same,MIC,[3],1 to 3.5 µg/mL
same,MIC,[4],12.5 to 150 µg/mL
same,MIC,[5],1 to 3.5 µg/mL
same,MIC,[6],< 1 µg/mL
same,MIC,E. coli LZ3111,3.5 to 12.5 µg/mL
same,MIC,E. coli 25922,1 to 3.5 µg/mL
same,MIC,E. coli ELZ4251,12.5 to 150 µg/mL
same,MIC,E. coli ELZ4000,12.5 to 150 µg/mL
same,MIC,[7],< 1 µg/mL
same,MIC,[8],3.5 to 12.5 µg/mL
